Results taken from ChEMBL document CHEMBL1154433, “Synthesis of new substituted azetidinoyl and thiazolidinoyl-1,3,4-thiadiazino (6,5-b) indoles as promising anti-inflammatory agents” (Eur J Med Chem, 2008).

What was measured:
Rattus norvegicus [1] = assay: Antiinflammatory activity in albino Charles-Foster rat assessed as inhibition of carrageenan-induced paw oedema at 50 mg/kg, po measured before 1 hr and after 3 hrs of carrageenan challenge relative to control; type: functional
Mus musculus [2] = assay: Analgesic activity in mouse assessed as protection against phenylquinone-induced writhing at 50 mg/kg, po administered 1 hr before phenylquinone challenge measured for 5 mins relative to control; type: functional
[3] = Acute toxicity in orally dosed albino mouse after 24 hrs; type: organism-based, albino Charles-Foster; conditions: in vivo, po, read-out: ALD50
[4] = target: Prostaglandin G/H synthase 1 (Homo sapiens) (UniProt P23219); assay: Inhibition of COX1; set-up: concentration or dose not given beside the values; conditions: concentration not given here
Chain of Prostaglandin G/H synthase 1 (Homo sapiens) (P23219 whole entry): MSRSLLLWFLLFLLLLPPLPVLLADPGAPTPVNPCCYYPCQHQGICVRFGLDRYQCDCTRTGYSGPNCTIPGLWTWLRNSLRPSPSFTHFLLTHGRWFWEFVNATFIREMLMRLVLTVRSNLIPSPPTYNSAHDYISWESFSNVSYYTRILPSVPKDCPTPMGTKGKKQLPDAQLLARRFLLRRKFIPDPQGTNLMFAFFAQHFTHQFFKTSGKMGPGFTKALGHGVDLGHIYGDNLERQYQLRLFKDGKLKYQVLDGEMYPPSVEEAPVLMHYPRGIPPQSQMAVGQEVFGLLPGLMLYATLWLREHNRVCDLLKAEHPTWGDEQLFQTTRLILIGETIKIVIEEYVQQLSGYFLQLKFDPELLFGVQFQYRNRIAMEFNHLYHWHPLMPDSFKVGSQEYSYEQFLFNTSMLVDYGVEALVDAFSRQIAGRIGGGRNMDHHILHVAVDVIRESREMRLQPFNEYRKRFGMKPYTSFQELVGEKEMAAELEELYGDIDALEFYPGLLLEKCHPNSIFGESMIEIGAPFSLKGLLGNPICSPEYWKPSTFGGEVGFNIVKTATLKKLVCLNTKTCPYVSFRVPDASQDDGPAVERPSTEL

[5] = target: T1, Prostaglandin G/H synthase 2 (Homo sapiens) (UniProt P35354); assay: Inhibition of COX2; set-up: concentration or dose not given beside the values; conditions: concentration not given here
T1 sequence (whole entry): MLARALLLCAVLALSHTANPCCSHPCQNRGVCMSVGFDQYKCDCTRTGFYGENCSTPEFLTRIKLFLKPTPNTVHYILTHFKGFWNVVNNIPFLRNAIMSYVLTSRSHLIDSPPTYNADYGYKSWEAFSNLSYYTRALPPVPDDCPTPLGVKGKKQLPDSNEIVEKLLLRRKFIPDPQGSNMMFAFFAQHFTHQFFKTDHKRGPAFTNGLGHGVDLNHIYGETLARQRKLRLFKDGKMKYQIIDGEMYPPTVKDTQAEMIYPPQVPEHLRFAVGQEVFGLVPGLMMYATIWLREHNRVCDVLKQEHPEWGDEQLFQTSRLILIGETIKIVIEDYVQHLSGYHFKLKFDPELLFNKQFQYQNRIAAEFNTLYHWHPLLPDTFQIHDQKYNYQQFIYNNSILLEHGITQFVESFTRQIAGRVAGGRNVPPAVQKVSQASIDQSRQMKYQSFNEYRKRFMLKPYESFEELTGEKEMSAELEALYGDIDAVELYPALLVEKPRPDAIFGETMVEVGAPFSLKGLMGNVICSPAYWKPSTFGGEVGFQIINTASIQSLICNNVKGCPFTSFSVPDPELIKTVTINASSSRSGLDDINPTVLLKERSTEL

Rattus norvegicus [6] = assay: Antiinflammatory activity in albino Charles-Foster rat assessed as inhibition of carrageenan-induced paw oedema at 25 mg/kg, po measured before 1 hr and after 3 hrs of carrageenan challenge relative to control; type: functional
Rattus norvegicus [7] = assay: Antiinflammatory activity in albino Charles-Foster rat assessed as inhibition of carrageenan-induced paw oedema at 100 mg/kg, po measured before 1 hr and after 3 hrs of carrageenan challenge relative to control; type: functional
Mus musculus [8] = assay: Analgesic activity in mouse assessed as protection against phenylquinone-induced writhing at 25 mg/kg, po administered 1 hr before phenylquinone challenge measured for 5 mins relative to control; type: functional
Mus musculus [9] = assay: Analgesic activity in mouse assessed as protection against phenylquinone-induced writhing at 100 mg/kg, po administered 1 hr before phenylquinone challenge measured for 5 mins relative to control; type: functional
[10] = Toxicity in 24 hrs fasted Albino rat assessed as ulcerogenic activity after 8 hrs; type: organism-based; conditions: in vivo, read-out: UD50
Rattus norvegicus [11] = assay: Antiinflammatory activity in albino Charles-Foster rat assessed as inhibition of carrageenan-induced paw oedema at 5 mg/kg, po measured before 1 hr and after 3 hrs of carrageenan challenge relative to control; type: functional
Rattus norvegicus [12] = assay: Antiinflammatory activity in albino Charles-Foster rat assessed as inhibition of carrageenan-induced paw oedema at 7.5 mg/kg, po measured before 1 hr and after 3 hrs of carrageenan challenge relative to control; type: functional
Rattus norvegicus [13] = assay: Antiinflammatory activity in albino Charles-Foster rat assessed as inhibition of carrageenan-induced paw oedema at 10 mg/kg, po measured before 1 hr and after 3 hrs of carrageenan challenge relative to control; type: functional
Mus musculus [14] = assay: Analgesic activity in mouse assessed as protection against phenylquinone-induced writhing at 5 mg/kg, po administered 1 hr before phenylquinone challenge measured for 5 mins relative to controll; type: functional
Mus musculus [15] = assay: Analgesic activity in mouse assessed as protection against phenylquinone-induced writhing at 7.5 mg/kg, po administered 1 hr before phenylquinone challenge measured for 5 mins relative to controll; type: functional
Mus musculus [16] = assay: Analgesic activity in mouse assessed as protection against phenylquinone-induced writhing at 10 mg/kg, po administered 1 hr before phenylquinone challenge measured for 5 mins relative to control; type: functional

Compound | inhibition in vivo at 50 mg/kg (Rattus norvegicus [1]) [%] | Activity (Mus musculus [2]) [%] | LD50 at 24 h [3] [mg/kg] | inhibition [4] [%] | inhibition [5] [%] | other results
CN(C)c1ccc(/C=N/c2nnc(CNc3nnc4c5ccccc5nc-4s3)s2)cc1 | 21.4 | 14.28 | > 800 | 24.2 | 26.4 | 
O=C1C(Cl)C(c2ccc(Cl)cc2)N1c1nnc(CNc2nnc3c4ccccc4nc-3s2)s1 (stereo not given) | 34.7 | 25.01 | > 800 | 40.9 | 72.1 | 
Oc1ccc(/C=N/c2nnc(CNc3nnc4c5ccccc5nc-4s3)s2)cc1 | 24.3 | 16.87 | > 800 | 25.1 | 31.5 | 
Cc1ccc(/C=N/c2nnc(CNc3nnc4c5ccccc5nc-4s3)s2)cc1 | 20.7 | 12.67 | > 800 | 23.1 | 25.4 | 
O=C1C(Cl)C(c2ccccc2Cl)N1c1nnc(CNc2nnc3c4ccccc4nc-3s2)s1 (stereo not given) | 28.8 | 38 | > 800 | 69.1 | 93.3 | inhibition in vivo at 25 mg/kg (Rattus norvegicus [6]): 28.8%; inhibition in vivo at 100 mg/kg (Rattus norvegicus [7]): 66.8%; Activity (Mus musculus [8]): 19%; Activity (Mus musculus [9]): 58%; TD50 at 8 h [10]: 133 mg/kg
O=C1CSC(c2ccc(Cl)cc2)N1c1nnc(CNc2nnc3c4ccccc4nc-3s2)s1 (stereo not given) | 18.2 | 8.78 | > 800 | 36.5 | 44.1 | 
COc1ccc(C2C(Cl)C(=O)N2c2nnc(CNc3nnc4c5ccccc5nc-4s3)s2)cc1 (stereo not given) | 31.6 | 21.27 | > 800 | 39.5 | 66.3 | 
COc1ccccc1C1C(Cl)C(=O)N1c1nnc(CNc2nnc3c4ccccc4nc-3s2)s1 (stereo not given) | 36.2 | 35 | > 800 | 38.7 | 64.3 | 
O=C1C(Cl)C(c2ccccc2)N1c1nnc(CNc2nnc3c4ccccc4nc-3s2)s1 (stereo not given) | 30.6 | 21 | > 800 | 37 | 74.6 | 
CN(C)c1ccc(C2C(Cl)C(=O)N2c2nnc(CNc3nnc4c5ccccc5nc-4s3)s2)cc1 (stereo not given) | 33.6 | 22.67 | > 800 | 37.2 | 65.8 | 
O=C1CSC(c2ccccc2Cl)N1c1nnc(CNc2nnc3c4ccccc4nc-3s2)s1 (stereo not given) | 38.5 | 24.67 | > 800 | 43.1 | 45.4 | inhibition in vivo at 25 mg/kg (Rattus norvegicus [6]): 22.4%; inhibition in vivo at 100 mg/kg (Rattus norvegicus [7]): 44.5%; Activity (Mus musculus [8]): 12.32%; Activity (Mus musculus [9]): 36.36%; TD50 at 8 h [10]: 167 mg/kg
COc1ccccc1C1SCC(=O)N1c1nnc(CNc2nnc3c4ccccc4nc-3s2)s1 (stereo not given) | 31.3 | 22.56 | > 800 | 33.3 | 38.5 | 
COc1ccc(/C=N/c2nnc(CNc3nnc4c5ccccc5nc-4s3)s2)cc1 | 22.4 | 15.67 | > 800 | 26.2 | 29.4 | 
CN(C)c1ccc(C2SCC(=O)N2c2nnc(CNc3nnc4c5ccccc5nc-4s3)s2)cc1 (stereo not given) | 28.7 | 18 | > 800 | 32.2 | 38.1 | 
C(=N\c1nnc(CNc2nnc3c4ccccc4nc-3s2)s1)/c1ccccc1 | 14.8 | 12.16 | > 800 | 22.4 | 24.2 | 
O=C1C(Cl)C(c2ccc(O)cc2)N1c1nnc(CNc2nnc3c4ccccc4nc-3s2)s1 (stereo not given) | 32.7 | 19.95 | > 800 | 39.3 | 71.1 | 
CCCCC1C(=O)N(c2ccccc2)N(c2ccccc2)C1=O [PHENYLBUTAZONE] | 36.8 | 32.5 | > 800 |  |  | inhibition in vivo at 25 mg/kg (Rattus norvegicus [6]): 26.8%; inhibition in vivo at 100 mg/kg (Rattus norvegicus [7]): 64.7%; Activity (Mus musculus [8]): 14.26%; Activity (Mus musculus [9]): 32.5%; TD50 at 8 h [10]: 54.6 mg/kg
Cc1ccc(C2C(Cl)C(=O)N2c2nnc(CNc3nnc4c5ccccc5nc-4s3)s2)cc1 (stereo not given) | 32.2 | 18.76 | > 800 | 38.4 | 63.6 | 
COc1ccccc1/C=N/c1nnc(CNc2nnc3c4ccccc4nc-3s2)s1 | 23.2 | 22.23 | > 800 | 24.1 | 26.7 | 
Clc1ccccc1/C=N/c1nnc(CNc2nnc3c4ccccc4nc-3s2)s1 | 26 | 18.66 | > 800 | 28.7 | 34.4 | 
Clc1ccc(/C=N/c2nnc(CNc3nnc4c5ccccc5nc-4s3)s2)cc1 | 26 | 16.5 | > 800 | 27.4 | 33.7 | 
COc1ccc(C2SCC(=O)N2c2nnc(CNc3nnc4c5ccccc5nc-4s3)s2)cc1 (stereo not given) | 28.1 | 10.76 | > 800 | 34.3 | 40.1 | 
O=C1CSC(c2ccccc2)N1c1nnc(CNc2nnc3c4ccccc4nc-3s2)s1 (stereo not given) | 19.8 | 9.7 | > 800 | 31.9 | 36.7 | 
O=C1CSC(c2ccc(O)cc2)N1c1nnc(CNc2nnc3c4ccccc4nc-3s2)s1 (stereo not given) | 25.3 | 9.95 | > 800 | 34.4 | 44 | 
COc1ccc2c(c1)c(CC(=O)O)c(C)n2C(=O)c1ccc(Cl)cc1 [INDOMETHACIN] | 52.2 |  |  |  |  | inhibition in vivo at 5 mg/kg (Rattus norvegicus [11]): 52.2%; inhibition in vivo at 7.5 mg/kg (Rattus norvegicus [12]): 63.1%; inhibition in vivo at 10 mg/kg (Rattus norvegicus [13]): 93.2%; Activity (Mus musculus [14]): 41.3%; Activity (Mus musculus [15]): 59.25%; Activity (Mus musculus [16]): 64.33%
Cc1ccc(C2SCC(=O)N2c2nnc(CNc3nnc4c5ccccc5nc-4s3)s2)cc1 (stereo not given) | 37 | 22.08 | > 800 | 33.4 | 36.3 | 
